Measurements: PubChem BioAssay AID256 (DTP/NCI, 2004)
“And” between values parts separate entries of the source, which are not always exact repeats. Equal values may be shown once. Inconclusive results and toxic doses are left out.

Tested on: CD2F1 mice, L1210 leukemia ip, survival T/C
Test: NCI In Vivo Anticancer Drug Screen. Data for tumor model L1210 Leukemia (intraperitoneal) in CD2F1 (CDF1) mice
Conditions: endpoint: mean survival time, higher = longer survival
Method in brief: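 Tumor-bearing mice (transplanted tumor) were split into treated and vehicle control groups, and the measured endpoint of each treated group was divided by that of its vehicle controls.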

Question: With `Nc1nc(=S)c2ncn(C3CC(O)C(CO)O3)c2[nH]1` (stereo unspecified) as the molecule, how does the T/C (dose: 1.25 mg/kg/injection, schedule: Q01DX005 (ip), vehicle: saline) read?
Answer: 150 % of control

Question: And the T/C (dose: 2.5 mg/kg/injection, schedule: Q01DX001 (ip), vehicle: steriod suspending solution)?
Answer: 123 % of control

Question: What about the T/C (dose: 4.0 mg/kg/injection, schedule: Q01DX009 (sc), vehicle: saline) of the same molecule?
Answer: 108 % of control

Question: And the T/C (dose: 5.0 mg/kg/injection, schedule: Q01DX005 (ip), vehicle: saline with Tween-80)?
Answer: 154 % of control

Question: And the T/C (dose: 5.0 mg/kg/injection, schedule: Q01DX005 (oral), vehicle: saline)?
Answer: 160 % of control

Question: And the T/C (dose: 5.0 mg/kg/injection, schedule: Q04DX003 (ip), vehicle: water)?
Answer: 153 % of control

Question: And the T/C (dose: 8.0 mg/kg/injection, schedule: Q01DX009 (ip), vehicle: saline)?
Answer: 151 % of control

Question: And the T/C (dose: 8.0 mg/kg/injection, schedule: Q01DX009 (sc), vehicle: saline)?
Answer: 106 % of control

Question: And the T/C (dose: 10.0 mg/kg/injection, schedule: Q01DX005 (ip), vehicle: saline with Tween-80)?
Answer: 120 % of control

Question: And the T/C (dose: 10.0 mg/kg/injection, schedule: Q01DX005 (ip), vehicle: saline)?
Answer: 151 % of control

Question: And the T/C (dose: 10.0 mg/kg/injection, schedule: Q01DX005 (oral), vehicle: saline)?
Answer: 156 % of control

Question: And the T/C (dose: 10.0 mg/kg/injection, schedule: Q04DX003 (ip), vehicle: suspension in saline)?
Answer: 154 % of control

Question: What about the T/C (dose: 10.0 mg/kg/injection, schedule: Q04DX003 (iv), vehicle: suspension in saline) of the same molecule?
Answer: 177 % of control

Question: What about the T/C (dose: 16.0 mg/kg/injection, schedule: Q01DX005 (ip), vehicle: saline) of the same molecule?
Answer: 161 % of control

Question: What about the T/C (dose: 16.0 mg/kg/injection, schedule: Q01DX009 (ip), vehicle: saline) of the same molecule?
Answer: 170 % of control

Question: And the T/C (dose: 16.0 mg/kg/injection, schedule: Q01DX009 (ip), vehicle: water)?
Answer: 108 % of control

Question: And the T/C (dose: 16.0 mg/kg/injection, schedule: Q01DX009 (sc), vehicle: saline)?
Answer: 151 % of control

Question: And the T/C (dose: 20.0 mg/kg/injection, schedule: Q01DX001 (sc), vehicle: saline)?
Answer: 121 % of control

Question: And the T/C (dose: 20.0 mg/kg/injection, schedule: Q01DX005 (oral), vehicle: saline)?
Answer: 151 % of control

Question: And the T/C (dose: 20.0 mg/kg/injection, schedule: Q03HX008 (ip), vehicle: saline)?
Answer: 152 % of control

Question: And the T/C (dose: 20.0 mg/kg/injection, schedule: Q03HX024 (ip), vehicle: saline)?
Answer: 150 % of control

Question: What about the T/C (dose: 20.0 mg/kg/injection, schedule: Q04DX003 (ip), vehicle: saline) of the same molecule?
Answer: 157 % of control

Question: What about the T/C (dose: 20.0 mg/kg/injection, schedule: Q04DX003 (ip), vehicle: suspension in saline) of the same molecule?
Answer: 159 % of control

Question: And the T/C (dose: 20.0 mg/kg/injection, schedule: Q04DX003 (iv), vehicle: suspension in saline)?
Answer: 159 % of control

Question: What about the T/C (dose: 24.0 mg/kg/injection, schedule: Q01DX009 (ip), vehicle: water) of the same molecule?
Answer: 116 % of control and 103 % of control

Question: And the T/C (dose: 24.0 mg/kg/injection, schedule: Q04DX003 (ip), vehicle: water)?
Answer: 118 % of control

Question: And the T/C (dose: 32.0 mg/kg/injection, schedule: Q01DX005 (ip), vehicle: saline)?
Answer: 152 % of control

Question: And the T/C (dose: 32.0 mg/kg/injection, schedule: Q01DX009 (ip), vehicle: saline)?
Answer: 157 % of control

Question: And the T/C (dose: 32.0 mg/kg/injection, schedule: Q01DX009 (sc), vehicle: saline)?
Answer: 150 % of control

Question: And the T/C (dose: 36.0 mg/kg/injection, schedule: Q01DX009 (ip), vehicle: water)?
Answer: 103 % of control

Question: And the T/C (dose: 36.0 mg/kg/injection, schedule: Q04DX003 (ip), vehicle: water)?
Answer: 111 % of control

Question: What about the T/C (dose: 37.5 mg/kg/injection, schedule: Q04DX003 (ip), vehicle: clinical formulation) of the same molecule?
Answer: 102 % of control

Question: What about the T/C (dose: 37.5 mg/kg/injection, schedule: Q04DX003 (ip), vehicle: saline) of the same molecule?
Answer: 163 % of control

Question: And the T/C (dose: 40.0 mg/kg/injection, schedule: Q03HX008 (ip), vehicle: saline)?
Answer: 157 % of control

Question: And the T/C (dose: 40.0 mg/kg/injection, schedule: Q03HX016 (ip), vehicle: saline)?
Answer: 156 % of control

Question: And the T/C (dose: 40.0 mg/kg/injection, schedule: Q03HX024 (ip), vehicle: saline)?
Answer: 159 % of control

Question: And the T/C (dose: 40.0 mg/kg/injection, schedule: Q04DX003 (ip), vehicle: saline)?
Answer: 178 % of control

Question: What about the T/C (dose: 40.0 mg/kg/injection, schedule: Q04DX003 (ip), vehicle: suspension in saline) of the same molecule?
Answer: 151 % of control

Question: What about the T/C (dose: 40.0 mg/kg/injection, schedule: Q04DX003 (iv), vehicle: suspension in saline) of the same molecule?
Answer: 189 % of control

Question: What about the T/C (dose: 40.0 mg/kg/injection, schedule: Q08DX002 (ip), vehicle: saline) of the same molecule?
Answer: 152 % of control

Question: And the T/C (dose: 50.0 mg/kg/injection, schedule: Q01DX009 (ip), vehicle: water)?
Answer: 107 % of control

Question: And the T/C (dose: 50.0 mg/kg/injection, schedule: Q04DX003 (ip), vehicle: water)?
Answer: 120 % of control and 103 % of control

Question: What about the T/C (dose: 64.0 mg/kg/injection, schedule: Q01DX009 (ip), vehicle: saline) of the same molecule?
Answer: 123 % of control

Question: And the T/C (dose: 75.0 mg/kg/injection, schedule: Q04DX003 (ip), vehicle: clinical formulation)?
Answer: 111 % of control

Question: And the T/C (dose: 75.0 mg/kg/injection, schedule: Q04DX003 (ip), vehicle: saline)?
Answer: 154 % of control

Question: And the T/C (dose: 76.0 mg/kg/injection, schedule: Q01DX009 (ip), vehicle: water)?
Answer: 115 % of control

Question: What about the T/C (dose: 76.0 mg/kg/injection, schedule: Q04DX003 (ip), vehicle: water) of the same molecule?
Answer: 122 % of control and 103 % of control

Question: What about the T/C (dose: 80.0 mg/kg/injection, schedule: Q01DX001 (ip), vehicle: saline) of the same molecule?
Answer: 154 % of control

Question: And the T/C (dose: 80.0 mg/kg/injection, schedule: Q03HX008 (ip), vehicle: saline)?
Answer: 161 % of control

Question: What about the T/C (dose: 80.0 mg/kg/injection, schedule: Q03HX016 (ip), vehicle: saline) of the same molecule?
Answer: 168 % of control

Question: What about the T/C (dose: 80.0 mg/kg/injection, schedule: Q03HX024 (ip), vehicle: saline) of the same molecule?
Answer: 161 % of control

Question: What about the T/C (dose: 80.0 mg/kg/injection, schedule: Q04DX003 (ip), vehicle: saline) of the same molecule?
Answer: 174 % of control

Question: What about the T/C (dose: 80.0 mg/kg/injection, schedule: Q04DX003 (ip), vehicle: suspension in saline) of the same molecule?
Answer: 154 % of control

Question: What about the T/C (dose: 80.0 mg/kg/injection, schedule: Q04DX003 (iv), vehicle: suspension in saline) of the same molecule?
Answer: 162 % of control

Question: What about the T/C (dose: 80.0 mg/kg/injection, schedule: Q08DX002 (ip), vehicle: saline) of the same molecule?
Answer: 154 % of control

Question: And the T/C (dose: 96.0 mg/kg/injection, schedule: Q01DX009 (oral), vehicle: saline)?
Answer: 115 % of control

Question: What about the T/C (dose: 116.0 mg/kg/injection, schedule: Q01DX005 (ip), vehicle: water) of the same molecule?
Answer: 117 % of control

Question: And the T/C (dose: 116.0 mg/kg/injection, schedule: Q01DX009 (ip), vehicle: water)?
Answer: 150 % of control

Question: What about the T/C (dose: 116.0 mg/kg/injection, schedule: Q04DX003 (ip), vehicle: water) of the same molecule?
Answer: 106 % of control

Question: And the T/C (dose: 150.0 mg/kg/injection, schedule: Q04DX003 (ip), vehicle: saline)?
Answer: 152 % of control

Question: And the T/C (dose: 160.0 mg/kg/injection, schedule: Q03HX008 (ip), vehicle: saline)?
Answer: 160 % of control

Question: What about the T/C (dose: 160.0 mg/kg/injection, schedule: Q03HX016 (ip), vehicle: saline) of the same molecule?
Answer: 174 % of control

Question: What about the T/C (dose: 160.0 mg/kg/injection, schedule: Q03HX024 (ip), vehicle: saline) of the same molecule?
Answer: 155 % of control

Question: What about the T/C (dose: 160.0 mg/kg/injection, schedule: Q04DX003 (ip), vehicle: saline) of the same molecule?
Answer: 162 % of control

Question: What about the T/C (dose: 160.0 mg/kg/injection, schedule: Q08DX002 (ip), vehicle: saline) of the same molecule?
Answer: 158 % of control and 152 % of control

Question: And the T/C (dose: 176.0 mg/kg/injection, schedule: Q01DX005 (ip), vehicle: water)?
Answer: 105 % of control

Question: What about the T/C (dose: 176.0 mg/kg/injection, schedule: Q04DX003 (ip), vehicle: water) of the same molecule?
Answer: 121 % of control

Question: And the T/C (dose: 192.0 mg/kg/injection, schedule: Q01DX009 (oral), vehicle: saline)?
Answer: 106 % of control

Question: What about the T/C (dose: 240.0 mg/kg/injection, schedule: Q01DX001 (oral), vehicle: saline) of the same molecule?
Answer: 152 % of control

Question: What about the T/C (dose: 266.0 mg/kg/injection, schedule: Q01DX005 (ip), vehicle: water) of the same molecule?
Answer: 88 % of control

Question: And the T/C (dose: 266.0 mg/kg/injection, schedule: Q04DX003 (ip), vehicle: water)?
Answer: 115 % of control

Question: What about the T/C (dose: 300.0 mg/kg/injection, schedule: Q04DX003 (ip), vehicle: saline) of the same molecule?
Answer: 101 % of control

Question: What about the T/C (dose: 320.0 mg/kg/injection, schedule: Q01DX001 (oral), vehicle: saline) of the same molecule?
Answer: 152 % of control

Question: And the T/C (dose: 320.0 mg/kg/injection, schedule: Q03HX008 (ip), vehicle: saline)?
Answer: 162 % of control

Question: And the T/C (dose: 320.0 mg/kg/injection, schedule: Q03HX016 (ip), vehicle: saline)?
Answer: 158 % of control

Question: What about the T/C (dose: 320.0 mg/kg/injection, schedule: Q04DX003 (ip), vehicle: suspension in saline) of the same molecule?
Answer: 108 % of control
